Data published in patent US20260137696A1, “Compositions Comprising an Inhibitor of Galectin-3” (University of Liverpool, priority 2023, published 2026).
Values joined by “and” are separate entries in the source; they are usually repeats but may differ in a detail not shown here. Equal entries are not always repeated. “Also recorded” adds a separate entry of the source.

Experiments:
[1] = test system: PANC1 cell; experiment: Pancreatic cancer cell adhesion to basement matrix; assay type: cell-based, human; conditions: for adhesion of control PANC1 cells: non-transfected cells (FIG. 16C, 16D); for PANC1 cell adhesion to matrix: different concentrations (FIG. 16A, 16B)
Procedure: (§1) Nanty-six well plates were coated with 50 μl Matrigel (1:30 diluted in PBS) at 37° C. for 1 hour. Cancer cells, pre-labelled with fluorescent die DiI at 37° C. for 20 minutes, were washed twice with PBS and resuspended into 3×10^4 cells/ml in serum-free medium. The matrix-coated 96-well plates were washed twice with PBS before introduction of […] cell suspension with different concentrations of the inhibitors or PBS/DMSO (control) for 1 hour at 37° C. The plates were washed twice with PBS before three randomly selected Field of Views (FOVs) were recorded by fluorescence microscope and number of adhesion cells were quantified by Image J.

[2] = test system: galectin-3 knockout (Gal3KO) PANC1 cells; experiment: Pancreatic cancer cell adhesion to basement matrix, galectin-3 knockout; assay type: cell-based, human; conditions: galectin-3 knockout by CRISPR/Cas9 (FIG. 16C, 16D)
Procedure: as §1
MDAMB-231 or PANC-1 cells were seeded into 6-well plate (2×10^5 cells) and cultured at 37° C. for 24 hour. Galectin-3 CRISPR Cas9 Knockout plasmid (2 μg) and galectin-3 HDR plasmid (2 μg) was mixed with Plasmid Transfection Medium (21 μl) for 5 minutes before addition to a mixture of lipofectamine STEM Transfection Reagent (STEM00001) (1 μl) and Plasmid Transfection Medium (25 μl) for 10 minutes at room temperature. The cells in the 6-well plates were washed and introduced with the Plasmid DNA/Lipofectamine STEM Transfection Reagent complex at 37° C. for 24 hours. […] Successful co-transfection of the CRISPR/Cas9 KO Plasmid and HDR Plasmid was confirmed by expression of red fluorescence protein of the cells. […]

[3] = biological target: T1, Galectin-3 (Homo sapiens, UniProt P17931); experiment: Galectin-3 binding to its ligand asialofetuin (ASF), ELISA; conditions: Galectin-3 5 μg/ml, ASF 20 μg/ml, read-out: IC50, inhibition of Galectin-3 binding to ASF
T1 construct: made in house; host or cells: E. coli
Procedure: The compounds of Formula I and Formula II each inhibits Galectin-3 binding to ASF dose-dependently with IC50 1˜5 μM;
FIG. 1A and FIG. 1B show compounds of Formula I and Formula II inhibit Galectin-3 binding to its ligand asialofetuin (ASF). […] The compounds of Formula I and Formula II each inhibit Galectin-3 binding to ASF dose-dependently with IC50 1˜5 μM.
Ninety-six well ELISA plates were coated with 20 μg/ml ASF in coating buffer (1.6 g Na2CO3, 1.46 NaHCO3 in 1 L H20, pH 9.6) overnight at room temperature. The plates were washed twice with washing buffer (0.05% Tween-20 in PBS) before incubation with blocking buffer (1% BSA in PBS) for 30 min. Recombinant human Galectin-3 (5 ug/ml) was incubated without or with various concentrations of the compounds of Formula I and compounds of Formula II for 30 min before introduced to the plates for 2 hr at room temperature. The plates were washed twice with washing buffer before introduction of anti-Galectin-3 antibody (1 μg/ml) for 2 hr. The plates were washed three times with washing buffer before introduction of HRP-conjugated secondary antibody (1:5,000 dilutions) for 1 hr at room temperature. The plates were washed twice with washing buffer before developed by SigmaFAST. The reaction was stopped by addition of 4M sulphuric acid before the plates were read at 492 nm (ref 595 nm) by a microplate reader.

[4] = test system: ACA19+ cells; experiment: Melanoma cell adhesion to HUVECs; assay type: cell-based; conditions: human melanoma ACA19+ cells, various concentrations
Procedure: (§2) Adhesion of human colon cancer SW620 cells to human umbilical vein endothelial cells (HUVECs) was assessed in the absence or presence of the compounds of Formula I and Formula II (10 μM). […] (N=2, n=2);
(§3) Adhesion of human colon cancer SW620 cells to human umbilical vein endothelial cells (HUVECs) was assessed in the absence or presence of the compounds of Formula I and Formula II (10 μM).
(§4) HUVECs (1.5×10^5 cells/ml) were seeded into 96-well plates in complete EBM-2 medium and incubated at 37° C. 5% CO2 for 48-72 hours until a monolayer was formed. Monolayer integrity was confirmed by measuring trans-endothelial electrical resistance (TEER) using a Volt Ohm Meter and only monolayers with TEER reading over 800 Ω/cm^2 were used for the assay. ZsGreen- and luciferase-transfected SW620Gal3+, SW620Gal3− or ACA19+ cells (5×10^5 cells/ml) was then added to the HUVECs without or with 10 μM of the compound of Formula I or the compound of Formula II for 30-35 min at 37° C. The cells were washed twice with PBS before lysed with PLB. The cell lysates were transferred into new wells of white-walled 96-well plates and Luciferase Assay Reagent was added. The wells were mixed well and luminescence was measured using Infinite F200 Microplate reader. The experiment was performed three times, each time in triplicates.

[5] = test system: SW620 cells; experiment: Cancer cell invasion through HUVECs (transwell); assay type: cell-based, human; conditions: 10 μM, transwells
Procedure: Invasion of human colon cancer SW620 cells through human umbilical vein endothelial cells (HUVECs) was assessed in transwells in the absence or presence of the compounds of Formula I and Formula II (10 μM).
HUVECs were seeded (1.5×10^4 cells/well) into trans-well insert in 24-well plate and cultured for three days to allow tight monolayer formation (TEER reading >800 Ω/cm2). The integrity of HUVEC monolayer was confirmed by measuring TEER and only monolayers with TEER reading >800 Ω/cm^2 were used for the invasion assay. The HUVEC monolayers were washed with PBS before introduction of ZsGreen- and luciferase transfected SW620Gal3+, SW620Gal-3, or ACA19+ cells (5×10^5 cells/ml) in serum-free DMEM with 0.5 mg/ml BSA, without or with 10 μM the compound of Formula I or the compound of Formula II. ZsGreen- and luciferase-labelled SW620Gal3− and SW620Gal3+ cells (5×10^5 cells/ml) were mixed without or with 10 μM inhibitors for 15 minutes before introduced to the HUVEC monolayer in the transwells for 16-18 hours. The cells at the upper side of the trans-well inserts were gently removed with a cotton swab and the inserts were washed twice with PBS. The cells that migrated to the bottom side of the trans-wells were lysed with PLB buffer for 10 min. The lyse was introduced with Luciferase Assay Reagent for 5 min before luminescence was measured. […]

[6] = test system: SW620^Gal3+ cells; experiment: Cancer cell adhesion to HUVECs; assay type: cell-based, human; conditions: 10 μM; Galectin-3-expressing SW620^Gal3+ cells
Procedure: as §2, §3, §4

T1 sequence (P17931 whole entry): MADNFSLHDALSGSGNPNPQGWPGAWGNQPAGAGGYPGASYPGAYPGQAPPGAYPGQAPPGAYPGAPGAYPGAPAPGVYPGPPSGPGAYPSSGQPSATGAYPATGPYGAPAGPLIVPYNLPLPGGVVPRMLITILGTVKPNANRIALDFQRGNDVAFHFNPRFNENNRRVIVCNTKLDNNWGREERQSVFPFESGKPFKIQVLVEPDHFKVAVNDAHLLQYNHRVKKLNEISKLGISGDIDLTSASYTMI

Row | Structure (SMILES) | adhesion of control PANC1 cells [1] | PANC1 cell adhesion to matrix [1] | adhesion of Gal3KO PANC1 cells [2] | IC50 [3] | ACA19+ cell adhesion to HUVEC [4] | SW620 cell invasion through HUVECs [5] | adhesion to HUVEC [6]
1 | C[C@H]1COc2c(N3CCN(C)CC3)c(F)cc3c(=O)c(C(=O)NNc4cccc(N)c4)cn1c23 [Formula II] | significant reduction; also recorded: significant inhibition | dose-dependently inhibits | lost their inhibitory effect | ~5 µM and 1 to 5 µM | dose-dependent inhibition | significant inhibits | significantly inhibits
2 | C[C@H]1COc2c(N3CCN(C)CC3)c(F)cc3c(=O)c(C(=O)NNc4ccc(N)cc4)cn1c23 [Formula I] | significant reduction; also recorded: significant inhibition | dose-dependently inhibits | lost their inhibitory effect | ~1 µM and 1 to 5 µM | dose-dependent inhibition | significant inhibits | significantly inhibits
